In patent US20210122730A1, “GLUCOCORTICOID RECEPTOR MODULATORS” (ORIC Pharmaceuticals, Inc., priority 2017, published 2021):

Target: T1, CYP2C8 (Homo sapiens, UniProt P10632)
T1 construct: Pooled human microsomes were obtained from Sekisui XenoTech, KS; tissue Sekisui XenoTech, KS; host or cells: pooled human liver microsomes
T1 sequence (P10632 1-490): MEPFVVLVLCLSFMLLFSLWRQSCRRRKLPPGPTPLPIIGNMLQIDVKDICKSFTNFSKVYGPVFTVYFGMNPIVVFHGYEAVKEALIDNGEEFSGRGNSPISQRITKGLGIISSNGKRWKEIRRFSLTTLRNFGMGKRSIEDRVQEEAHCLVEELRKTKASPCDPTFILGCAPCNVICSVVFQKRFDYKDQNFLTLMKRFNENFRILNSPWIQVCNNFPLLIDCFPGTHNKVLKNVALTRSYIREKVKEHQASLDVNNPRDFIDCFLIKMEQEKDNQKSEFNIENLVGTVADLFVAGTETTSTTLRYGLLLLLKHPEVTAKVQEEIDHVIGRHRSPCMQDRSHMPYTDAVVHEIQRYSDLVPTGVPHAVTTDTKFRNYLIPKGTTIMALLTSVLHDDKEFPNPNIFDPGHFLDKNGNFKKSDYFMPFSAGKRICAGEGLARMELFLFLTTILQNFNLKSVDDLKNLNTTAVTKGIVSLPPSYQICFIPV
Experiment: CYP Inhibition Assay (CYP2C8, human liver microsomes, paclitaxel substrate)
Assay type: in vitro ADME
Settings: pH 7.4; pooled human liver microsomes 0.1 mg/mL, probe substrate paclitaxel
In short: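 Pooled human liver microsomes (0.1 mg/mL) in 50 mM potassium phosphate pH 7.4 with compound, started with 1 mM NADPH, 5 min at 37° C, duplicate.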

inhibition at 5 min | Compound
25 to 50% | Cn1ccc(S(=O)(=O)N(CC2CC2)[C@H]2CCC3=Cc4c(cnn4-c4ccc(F)cc4)C[C@]3(C(=O)c3ncc(C(F)(F)F)s3)C2)n1 [Example 179, N-(cyclopropylmethyl)-N-((4aS,6S)-1-(4-fluorophenyl)-4a-(5-(trifluoromethyl)thiazole-2-carbonyl)-4,4a,5,6,7,8-hexahydro-1H-benzo[f]indazol-6-yl)-1-methyl-1H-pyrazole-3-sulfonamide]
25 to 50% | Cn1cc(S(=O)(=O)N(CC2CC2)[C@H]2CCC3=Cc4c(cnn4-c4ccc(F)cc4)C[C@]3(C(=O)c3cc(C(F)(F)F)ccn3)C2)cn1 [Example 103, N-(cyclopropylmethyl)-N-((4aS,6S)-1-(4-fluorophenyl)-4a-(4-(trifluoromethyl)picolinoyl)-4,4a,5,6,7,8-hexahydro-1H-benzo[f]indazol-6-yl)-1-methyl-1H-pyrazole-4-sulfonamide]
50 to 75% | Cn1ccc(S(=O)(=O)N(C2CC2)[C@H]2CCC3=Cc4c(cnn4-c4ccc(F)cc4)C[C@]3(C(=O)c3cc(C(F)(F)F)ccn3)C2)n1 [Example 138, N-cyclopropyl-N-((4aS,6S)-1-(4-fluorophenyl)-4a-(4-(trifluoromethyl)picolinoyl)-4,4a,5,6,7,8-hexahydro-1H-benzo[f]indazol-6-yl)-1-methyl-1H-pyrazole-3-sulfonamide]
25 to 50% | Cn1cnc(S(=O)(=O)N(C2CC2)[C@H]2CCC3=Cc4c(cnn4-c4ccc(F)cc4)C[C@]3(C(=O)c3ncc(C(F)(F)F)s3)C2)n1 [Example 305, N-cyclopropyl-N-((4aS,6S)-1-(4-fluorophenyl)-4a-(5-(trifluoromethyl)thiazole-2-carbonyl)-4,4a,5,6,7,8-hexahydro-1H-benzo[f]indazol-6-yl)-1-methyl-1H-1,2,4-triazole-3-sulfonamide]
≤ 25% | Cn1ccc(S(=O)(=O)N([C@H]2CCC3=Cc4c(cnn4-c4ccc(F)cc4)C[C@]3(C(=O)c3ncc(C(F)(F)F)s3)C2)[C@H]2C[C@@](C)(O)C2)n1 [Example 277, N-((4aS,6S)-1-(4-fluorophenyl)-4a-(5-(trifluoromethyl)thiazole-2-carbonyl)-4,4a,5,6,7,8-hexahydro-1H-benzo[f]indazol-6-yl)-N-((1s,3R)-3-hydroxy-3-methylcyclobutyl)-1-methyl-1H-pyrazole-3-sulfonamide]
≤ 25% | Cn1ccc(S(=O)(=O)N(C2CC(F)(F)C2)[C@H]2CCC3=Cc4c(cnn4-c4ccc(F)cc4)C[C@]3(C(=O)c3ncc(C(F)(F)F)s3)C2)n1 [Example 270, N-(3,3-difluorocyclobutyl)-N-((4aS,6S)-1-(4-fluorophenyl)-4a-(5-(trifluoromethyl)thiazole-2-carbonyl)-4,4a,5,6,7,8-hexahydro-1H-benzo[f]indazol-6-yl)-1-methyl-1H-pyrazole-3-sulfonamide]

The next lines start with the compound.

Compound | inhibition at 5 min
CC(C)N([C@H]1CCC2=Cc3c(cnn3-c3ccc(F)cc3)C[C@]2(C(=O)c2cc(C(F)(F)F)ccn2)C1)S(=O)(=O)c1ccn(C)n1 [Example 186, N-((4aS,6S)-1-(4-fluorophenyl)-4a-(4-(trifluoromethyl)picolinoyl)-4,4a,5,6,7,8-hexahydro-1H-benzo[f]indazol-6-yl)-N-isopropyl-1-methyl-1H-pyrazole-3-sulfonamide] | 50 to 75%
Cn1cnc(S(=O)(=O)N(C2CC2)[C@H]2CCC3=Cc4c(cnn4-c4ccc(F)cc4)C[C@]3(C(=O)c3cc(C(F)(F)F)ccn3)C2)n1 [Example 306, N-cyclopropyl-N-((4aS,6S)-1-(4-fluorophenyl)-4a-(4-(trifluoromethyl)picolinoyl)-4,4a,5,6,7,8-hexahydro-1H-benzo[f]indazol-6-yl)-1-methyl-1H-1,2,4-triazole-3-sulfonamide] | ≤ 25%
Cn1cc(S(=O)(=O)C[C@H]2CCC3=Cc4c(cnn4-c4ccc(F)cc4)C[C@]3(C(=O)c3cc(C(F)(F)F)ccn3)C2)cn1 (single isomer, unassigned) [Example 118] | ≤ 25%
CC(C)N(C(=O)c1cnn(C)c1)[C@H]1CCC2=Cc3c(cnn3-c3ccc(F)cc3)C[C@]2(C(=O)c2ncc(C(F)(F)F)s2)C1 [Example 211, N-((4aS,6S)-1-(4-fluorophenyl)-4a-(5-(trifluoromethyl)thiazole-2-carbonyl)-4,4a,5,6,7,8-hexahydro-1H-benzo[f]indazol-6-yl)-N-isopropyl-1-methyl-1H-pyrazole-4-carboxamide] | 25 to 50%
Cn1ccc(S(=O)(=O)N(C2CC(F)(F)C2)[C@H]2CCC3=Cc4c(cnn4-c4ccc(F)cc4)C[C@]3(C(=O)c3cc(C(F)(F)F)ccn3)C2)n1 [Example 227, N-(3,3-difluorocyclobutyl)-N-((4aS,6S)-1-(4-fluorophenyl)-4a-(4-(trifluoromethyl)picolinoyl)-4,4a,5,6,7,8-hexahydro-1H-benzo[f]indazol-6-yl)-1-methyl-1H-pyrazole-3-sulfonamide] | 25 to 50%
O=C(c1ncc(C(F)(F)F)s1)[C@]12Cc3cnn(-c4ccc(F)cc4)c3C=C1CC[C@H](N(C1CC1)S(=O)(=O)c1ccc(F)cc1)C2 [Example 177, N-cyclopropyl-4-fluoro-N-((4aS,6S)-1-(4-fluorophenyl)-4a-(5-(trifluoromethyl)thiazole-2-carbonyl)-4,4a,5,6,7,8-hexahydro-1H-benzo[f]indazol-6-yl)benzenesulfonamide] | ≤ 25%
CN([C@H]1CCC2=Cc3c(cnn3-c3ccc(F)cc3)C[C@]2(C(=O)c2cc(C(F)(F)F)ccn2)C1)S(=O)(=O)c1ccn(C)n1 [Example 98, N-((4aS,6S)-1-(4-fluorophenyl)-4a-(4-(trifluoromethyl)picolinoyl)-4,4a,5,6,7,8-hexahydro-1H-benzo[f]indazol-6-yl)-N,1-dimethyl-1H-pyrazole-3-sulfonamide] | 25 to 50%
Cn1ccc(S(=O)(=O)N(CC(F)(F)F)[C@H]2CCC3=Cc4c(cnn4-c4ccc(F)cc4)C[C@]3(C(=O)c3cc(C(F)(F)F)ccn3)C2)n1 [Example 111, N-((4aS,6S)-1-(4-Fluorophenyl)-4a-(4-(trifluoromethyl)picolinoyl)-4,4a,5,6,7,8-hexahydro-1H-benzo[f]indazol-6-yl)-1-methyl-N-(2,2,2-trifluoroethyl)-1H-pyrazole-3-sulfonamide] | 25 to 50%
O=C(c1cc(Cl)ccn1)[C@]12Cc3cnn(-c4ccc(F)cc4)c3C=C1CC[C@H](N(C1CC1)S(=O)(=O)c1ccc(F)cc1)C2 [Example 232, N-((4aS,6S)-4a-(4-chloropicolinoyl)-1-(4-fluorophenyl)-4,4a,5,6,7,8-hexahydro-1H-benzo[f]indazol-6-yl)-N-cyclopropyl-4-fluorobenzenesulfonamide] | 25 to 50%
Cn1cc(S(=O)(=O)N(C2CC2)[C@H]2CCC3=Cc4c(cnn4-c4ccc(F)cc4)C[C@]3(C(=O)c3cc(C(F)(F)F)ccn3)C2)cn1 [Example 88, N-cyclopropyl-N-((4aS,6S)-1-(4-fluorophenyl)-4a-(4-(trifluoromethyl)picolinoyl)-4,4a,5,6,7,8-hexahydro-1H-benzo[f]indazol-6-yl)-1-methyl-1H-pyrazole-4-sulfonamide] | 25 to 50%
CN([C@H]1CCC2=Cc3c(cnn3-c3ccc(F)cc3)C[C@]2(C(=O)c2cc(C(F)(F)F)ccn2)C1)S(=O)(=O)c1ccc(F)cc1 [Example 5, 4-Fluoro-N-((4aS,6S)-1-(4-fluorophenyl)-4a-(4-(trifluoromethyl)picolinoyl)-4,4a,5,6,7,8-hexahydro-1H-benzo[f]indazol-6-yl)-N-methylbenzenesulfonamide] | 25 to 50%
Cn1ccc(S(=O)(=O)[C@H]2CCC3=Cc4c(cnn4-c4ccc(F)cc4)C[C@]3(C(=O)c3cc(C(F)(F)F)ccn3)C2)n1 [Example 113, ((4aS,6S)-1-(4-Fluorophenyl)-6-((1-methyl-1H-pyrazol-3-yl)sulfonyl)-1,4,5,6,7,8-hexahydro-4aH-benzo[f]indazol-4a-yl)(4-(trifluoromethyl)pyridin-2-yl)methanone] | ≤ 25%
Cn1cc(S(=O)(=O)N(CC(C)(C)O)[C@H]2CCC3=Cc4c(cnn4-c4ccc(F)cc4)C[C@]3(C(=O)c3cc(F)ccn3)C2)cn1 [Example 248, N-((4aS,6S)-1-(4-fluorophenyl)-4a-(4-fluoropicolinoyl)-4,4a,5,6,7,8-hexahydro-1H-benzo[f]indazol-6-yl)-N-(2-hydroxy-2-methylpropyl)-1-methyl-1H-pyrazole-4-sulfonamide] | ≤ 25%
